From US20220220135A1 (BAR-ILAN UNIVERSITY, priority 2019, published 2022)

Legend:
[1] = target: T1, NTPDase3 (Homo sapiens, UniProt O75355); experiment: Inhibition of ATPase activity of human NTPDase3; format: biochemical; details: analogue at 100 μM; ATP 100 μM as substrate
T1 sequence (O75355 1-529): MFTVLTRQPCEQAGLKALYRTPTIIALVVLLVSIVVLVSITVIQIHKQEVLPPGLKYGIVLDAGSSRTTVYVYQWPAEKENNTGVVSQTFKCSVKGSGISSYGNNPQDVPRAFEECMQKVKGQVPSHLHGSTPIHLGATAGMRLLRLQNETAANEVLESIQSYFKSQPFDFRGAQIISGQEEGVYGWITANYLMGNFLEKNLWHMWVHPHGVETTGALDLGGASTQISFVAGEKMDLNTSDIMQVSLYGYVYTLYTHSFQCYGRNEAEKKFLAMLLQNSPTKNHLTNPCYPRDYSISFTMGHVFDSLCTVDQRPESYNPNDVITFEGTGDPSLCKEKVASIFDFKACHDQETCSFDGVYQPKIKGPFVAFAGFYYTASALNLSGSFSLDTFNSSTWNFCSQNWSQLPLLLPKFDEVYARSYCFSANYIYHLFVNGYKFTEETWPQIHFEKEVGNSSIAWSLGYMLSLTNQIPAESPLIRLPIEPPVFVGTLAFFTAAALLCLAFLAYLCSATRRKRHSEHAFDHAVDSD
Method: (§1) FIG. 2: Inhibition of NTPDases and NPPs by analogues 9-12 using as substrates ATP (100 μM) for NTPDase1,2,3,8 and pNP-TMP (100 μM) for NPP1,3 (Panel A); and ATP (100 μM) was used as the substrate for NPP1 (Panel B);
(§2) At least 2 independent experiments were performed. In panel A, the activity with 100 μM ATP was set as 100%, which was 287±31, 395±67, 278±22, 119±26 nmol of Pi·min−1·mg of protein−1 for human NTPDase1, -2, -3 and -8, respectively, and the activity with 100 μM pNP-TMP was set as 100% which was 67±5, 21±1 nmol of p-nitrophenol·min−1·mg of protein−1 for human NPP1 and NPP3, respectively. In panel B, the activity with 100 μM ATP was set as 100% which was 34±7 nmol of PPi·min−1·mg of protein−1 for NPP1.

[2] = Chemical stability under acidic and basic conditions by 31P-NMR
Text: To evaluate the chemical stability of uridine-5′-Pα,α-dithiophosphate analogues, we measured by 31P-NMR the time-dependent percentage of the analogues remaining under basic and acidic conditions, and due to air-oxidation.

[3] = target: P2Y6R (Homo sapiens, UniProt Q15077); experiment: P2Y6R agonist activity, inositol-1-phosphate (IP1) accumulation; format: cell-based; parameters: expressed in transfected cells; host or cells: AD293 cells; details: vs. UDP
Text: FIG. 3: P2Y6R agonist activity of analogues 9-12 vs. UDP determined by measuring the production of inositol-1-phosphate (IP1);

[4] = target: T2, human NPP3 (Homo sapiens, UniProt O14638); experiment: Inhibition of human NPP3, pNP-TMP as substrate (analogues 9-12); format: biochemical; details: analogue at 100 μM; pNP-TMP 100 μM as substrate
T2 sequence (O14638 1-875): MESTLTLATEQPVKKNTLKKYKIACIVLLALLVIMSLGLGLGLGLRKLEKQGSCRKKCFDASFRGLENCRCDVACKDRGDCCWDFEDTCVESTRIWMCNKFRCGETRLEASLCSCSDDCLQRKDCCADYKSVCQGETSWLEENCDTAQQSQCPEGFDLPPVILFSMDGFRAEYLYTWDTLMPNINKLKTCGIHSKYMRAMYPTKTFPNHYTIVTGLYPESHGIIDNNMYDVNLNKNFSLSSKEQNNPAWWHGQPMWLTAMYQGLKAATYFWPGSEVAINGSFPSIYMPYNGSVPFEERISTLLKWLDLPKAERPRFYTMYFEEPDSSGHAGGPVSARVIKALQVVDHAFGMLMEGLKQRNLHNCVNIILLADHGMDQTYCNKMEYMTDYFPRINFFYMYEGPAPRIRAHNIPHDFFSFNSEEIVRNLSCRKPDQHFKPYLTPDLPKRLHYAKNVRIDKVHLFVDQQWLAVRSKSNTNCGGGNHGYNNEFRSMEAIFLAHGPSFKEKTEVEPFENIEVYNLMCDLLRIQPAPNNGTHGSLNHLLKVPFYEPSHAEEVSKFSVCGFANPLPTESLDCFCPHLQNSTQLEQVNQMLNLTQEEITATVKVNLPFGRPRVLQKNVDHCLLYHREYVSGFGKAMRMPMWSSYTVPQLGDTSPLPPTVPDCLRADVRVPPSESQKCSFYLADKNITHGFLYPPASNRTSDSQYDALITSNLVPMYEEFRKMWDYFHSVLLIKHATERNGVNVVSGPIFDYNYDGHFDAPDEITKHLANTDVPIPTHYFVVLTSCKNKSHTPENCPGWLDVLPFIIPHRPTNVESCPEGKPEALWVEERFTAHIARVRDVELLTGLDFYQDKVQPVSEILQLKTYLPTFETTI
Method: as §1, §2

[5] = target: T3, NTPDase8 (Homo sapiens, UniProt Q5MY95); experiment: Inhibition of ATPase activity of human NTPDase8; format: biochemical; details: analogue at 100 μM; ATP 100 μM as substrate
T3 sequence (Q5MY95 1-495): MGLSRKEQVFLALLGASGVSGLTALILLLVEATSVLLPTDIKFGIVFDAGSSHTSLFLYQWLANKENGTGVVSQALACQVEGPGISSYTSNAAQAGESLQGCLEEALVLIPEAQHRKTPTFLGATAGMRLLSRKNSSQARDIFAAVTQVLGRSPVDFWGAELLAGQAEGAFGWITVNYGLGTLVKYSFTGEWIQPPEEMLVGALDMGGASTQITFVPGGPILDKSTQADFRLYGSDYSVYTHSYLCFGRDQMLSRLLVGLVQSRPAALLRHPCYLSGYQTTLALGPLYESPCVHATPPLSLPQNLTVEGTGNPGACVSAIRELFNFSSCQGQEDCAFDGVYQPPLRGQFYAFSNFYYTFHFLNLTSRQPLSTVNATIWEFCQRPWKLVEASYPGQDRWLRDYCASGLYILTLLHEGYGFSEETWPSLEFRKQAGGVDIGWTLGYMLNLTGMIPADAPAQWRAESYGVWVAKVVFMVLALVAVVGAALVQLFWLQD
Method: as §1, §2

Chain of P2Y6R (Q15077 whole entry): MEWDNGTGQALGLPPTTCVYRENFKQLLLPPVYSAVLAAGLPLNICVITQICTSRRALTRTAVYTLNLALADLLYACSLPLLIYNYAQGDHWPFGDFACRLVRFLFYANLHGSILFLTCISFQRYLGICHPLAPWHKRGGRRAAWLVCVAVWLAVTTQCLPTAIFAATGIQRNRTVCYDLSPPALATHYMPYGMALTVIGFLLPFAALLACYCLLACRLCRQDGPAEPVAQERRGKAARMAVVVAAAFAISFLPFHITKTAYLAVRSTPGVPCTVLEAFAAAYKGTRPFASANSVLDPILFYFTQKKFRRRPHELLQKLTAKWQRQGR

Row | Compound | inhibition of human NTPDase3 [1] | decomposition ([2]; basic, pD 12.1, after 25 days) [%] | decomposition of starting material ([2]; pD 2.1 (pH 1.7), RT, 23 days) [%] | P2Y6-R agonist activity (IP1 accumulation) [3] | inhibition of human NPP3 [4] | inhibition of human NTPDase8 [5] | decomposition ([2]; pD 2.1, after 25 days) [%] | inhibition at 100 µM [4] [%] | inhibition at 100 µM [1] [%] | loss of compound ([2]; basic, pD 12.6, after 16 days) [%] | decomposition ([2]; pD 1.8 (pH 1.4), 16 days, RT) [%]
1 | O=c1ccn([C@@H]2O[C@H](COP(=S)(S)OP(=O)(O)OP(=O)(O)O)[C@@H](O)[C@H]2O)c(=O)[nH]1 (stereo partly drawn) [Analogue 10] | no inhibition | 24 | 15 | limited agonist activities | no inhibition | no inhibition |  |  |  |  | 
2 | O=c1ccn([C@@H]2O[C@H](COP(=S)(S)OP(=O)(O)CP(=O)(O)O)[C@@H](O)[C@H]2O)c(=O)[nH]1 (stereo partly drawn) [Analogue 11] | negligible effects | 23 |  | devoid of any P2Y6—R activity |  | negligible effects | 6 | 21 |  |  | 
3 | O=c1ccn([C@@H]2O[C@H](COP(=S)(S)OP(=O)(O)OP(=O)(O)OP(=S)(S)OC[C@H]3O[C@@H](n4ccc(=O)[nH]c4=O)[C@H](O)[C@@H]3O)[C@@H](O)[C@H]2O)c(=O)[nH]1 (stereo partly drawn) [Analogue 12] |  |  |  | limited agonist activities |  | selective to NPP1 |  | 27 | 24 | 13 | 6
